The values that follow are results of earlier work, collected in PubChem BioAssay AID1259409 (Chemical Carcinogenesis Research Information System (CCRIS), 2018).

In the data set the test system is rodent chemically induced tumor inhibition, incidence and multiplicity. The data set is described as follows: CCRIS tumor inhibitor studies.

Regarding `Oc1cccc(O)c1`, the “tumour outcome (control, treated, inhibition, significance)” value (Carcinogen: 3,2'-DIMETHYL-4-AMINOBIPHENYL, 13394-86-0, Dose [Inhibitor]: 0, 0.8% IN BASAL DIET BEGINNING POST CARCINOGEN TREATMENT AND CONTINUING FOR 40 WK (STUDY DURATION: 60 WK), Route [Inhibitor]: ORAL, Species: RAT, Strain/Sex: F344/MALE, Target Tissue: Type of Lesion: LARGE INTESTINE: ADENOMA AND ADENOCARCINOMA, Dose [Carcinogen]: 50 MG/KG 1/2 WK FOR 20 WK TO RATS MAINTAINED ON ETHINYL ESTRADIOL CONTAINING DIET (0.75 PPM) FOR 1 WK CYCLED WITH ETHINY, Promoter: ETHINYL ESTRADIOL, 57-63-6) is recorded as 3/10 (30%), 6/10 (60%), -100%, not significant; the “tumour outcome (control, treated, inhibition, significance)” value (Carcinogen: 3,2'-DIMETHYL-4-AMINOBIPHENYL, 13394-86-0, Dose [Inhibitor]: 0, 0.8% IN BASAL DIET BEGINNING POST CARCINOGEN TREATMENT AND CONTINUING FOR 40 WK (STUDY DURATION: 60 WK), Route [Inhibitor]: ORAL, Species: RAT, Strain/Sex: F344/MALE, Target Tissue: Type of Lesion: PANCREAS: ACINAR CELL NODULE, Dose [Carcinogen]: 50 MG/KG 1/2 WK FOR 20 WK TO RATS MAINTAINED ON ETHINYL ESTRADIOL CONTAINING DIET (0.75 PPM) FOR 1 WK CYCLED WITH ETHINY, Promoter: ETHINYL ESTRADIOL, 57-63-6) is on record as 4/10 (40%), 3/10 (30%), 25%, not significant; the “tumour outcome (control, treated, inhibition, significance)” value (Carcinogen: 3,2'-DIMETHYL-4-AMINOBIPHENYL, 13394-86-0, Dose [Inhibitor]: 0, 0.8% IN BASAL DIET BEGINNING POST CARCINOGEN TREATMENT AND CONTINUING FOR 40 WK (STUDY DURATION: 60 WK), Route [Inhibitor]: ORAL, Species: RAT, Strain/Sex: F344/MALE, Target Tissue: Type of Lesion: PREPUTIAL GLAND: ADENOMA AND CARCINOMA, Dose [Carcinogen]: 50 MG/KG 1/2 WK FOR 20 WK TO RATS MAINTAINED ON ETHINYL ESTRADIOL CONTAINING DIET (0.75 PPM) FOR 1 WK CYCLED WITH ETHINY, Promoter: ETHINYL ESTRADIOL, 57-63-6) is listed as 5/10 (50%), 3/10 (30%), 40%, not significant; the “tumour outcome (control, treated, inhibition, significance)” value (Carcinogen: 3,2'-DIMETHYL-4-AMINOBIPHENYL, 13394-86-0, Dose [Inhibitor]: 0, 0.8% IN BASAL DIET BEGINNING POST CARCINOGEN TREATMENT AND CONTINUING FOR 40 WK (STUDY DURATION: 60 WK), Route [Inhibitor]: ORAL, Species: RAT, Strain/Sex: F344/MALE, Target Tissue: Type of Lesion: PROSTATE: CARCINOMA, Dose [Carcinogen]: 50 MG/KG 1/2 WK FOR 20 WK TO RATS MAINTAINED ON ETHINYL ESTRADIOL CONTAINING DIET (0.75 PPM) FOR 1 WK CYCLED WITH ETHINY, Promoter: ETHINYL ESTRADIOL, 57-63-6) is 5/10 (50%), 3/10 (30%), 40%, not significant; the “tumour outcome (control, treated, inhibition, significance)” value (Carcinogen: 3,2'-DIMETHYL-4-AMINOBIPHENYL, 13394-86-0, Dose [Inhibitor]: 0, 0.8% IN BASAL DIET BEGINNING POST CARCINOGEN TREATMENT AND CONTINUING FOR 40 WK (STUDY DURATION: 60 WK), Route [Inhibitor]: ORAL, Species: RAT, Strain/Sex: F344/MALE, Target Tissue: Type of Lesion: SMALL INTESTINE: ADENOMA AND ADENOCARCINOMA, Dose [Carcinogen]: 50 MG/KG 1/2 WK FOR 20 WK TO RATS MAINTAINED ON ETHINYL ESTRADIOL CONTAINING DIET (0.75 PPM) FOR 1 WK CYCLED WITH ETHINY, Promoter: ETHINYL ESTRADIOL, 57-63-6) was 2/10 (20%), 2/10 (20%), 0%, not significant; the “tumour outcome (control, treated, inhibition, significance)” value (Carcinogen: 3,2'-DIMETHYL-4-AMINOBIPHENYL, 13394-86-0, Dose [Inhibitor]: 0, 0.8% IN BASAL DIET BEGINNING POST CARCINOGEN TREATMENT AND CONTINUING FOR 40 WK (STUDY DURATION: 60 WK), Route [Inhibitor]: ORAL, Species: RAT, Strain/Sex: F344/MALE, Target Tissue: Type of Lesion: SUBCUTIS: TUMOR, Dose [Carcinogen]: 50 MG/KG 1/2 WK FOR 20 WK TO RATS MAINTAINED ON ETHINYL ESTRADIOL CONTAINING DIET (0.75 PPM) FOR 1 WK CYCLED WITH ETHINY, Promoter: ETHINYL ESTRADIOL, 57-63-6) was 1/10 (10%), 1/10 (10%), 0%, not significant. Further, the “tumour outcome (control, treated, inhibition, significance)” value runs as follows: (Carcinogen: 3,2'-DIMETHYL-4-AMINOBIPHENYL, 13394-86-0, Dose [Inhibitor]: 0, 0.8% IN BASAL DIET BEGINNING POST CARCINOGEN TREATMENT AND CONTINUING FOR 40 WK (STUDY DURATION: 60 WK), Route [Inhibitor]: ORAL, Species: RAT, Strain/Sex: F344/MALE, Target Tissue: Type of Lesion: ZYMBAL GLAND: ADENOMA OR CARCINOMA, Dose [Carcinogen]: 50 MG/KG 1/2 WK FOR 20 WK TO RATS MAINTAINED ON ETHINYL ESTRADIOL CONTAINING DIET (0.75 PPM) FOR 1 WK CYCLED WITH ETHINY, Promoter: ETHINYL ESTRADIOL, 57-63-6) 2/10 (20%), 2/10 (20%), 0%, not significant; (Carcinogen: BENZO[A]PYRENE, 50-32-8, Dose [Inhibitor]: 10 MG IN 0.1 ML ACETONE 3/WK ADMINISTERED SIMULTANEOUSLY WITH CARCINOGEN FOR DU RATION OF STUDY (STUDY DURATION: 368 D), Route [Inhibitor]: DERMAL, Species: MOUSE, Strain/Sex: ICR/FEMALE, Target Tissue: Type of Lesion: SKIN: PAPILLOMA, Dose [Carcinogen]: 5 UG IN 0.1 ML ACETONE THAT ALSO CONTAINED AGENT 3/WK FOR DURATION OF STUDY, Promoter: NONE USED) 14/50 (28%), 5/50 (10%), 64%, not calculated; (Carcinogen: BENZO[A]PYRENE, 50-32-8, Dose [Inhibitor]: 10 MG IN 0.1 ML ACETONE 3/WK ADMINISTERED SIMULTANEOUSLY WITH CARCINOGEN FOR DU RATION OF STUDY (STUDY DURATION: 368 D), Route [Inhibitor]: DERMAL, Species: MOUSE, Strain/Sex: ICR/FEMALE, Target Tissue: Type of Lesion: SKIN: SQUAMOUS CARCINOMA, Dose [Carcinogen]: 5 UG IN 0.1 ML ACETONE THAT ALSO CONTAINED AGENT 3/WK FOR DURATION OF STUDY, Promoter: NONE USED) 10/50 (20%), 2/50 (4%), 80%, not calculated; (Carcinogen: N-BIS(2-HYDROXYPROPYL)NITROSAMINE, 53609-64-6, Dose [Inhibitor]: 0, 0.8% IN DIET FOR 30 WK BEGINNING POST CARCINOGEN (STUDY DURATION: 32 WK), Route [Inhibitor]: ORAL, Species: RAT, Strain/Sex: F344/MALE, Target Tissue: Type of Lesion: LUNG: CARCINOMA, Dose [Carcinogen]: 0.1% IN DRINKING WATER FOR 2 WK, Promoter: NONE USED) 45%, 40%, 11%, not calculated; (Carcinogen: N-BIS(2-HYDROXYPROPYL)NITROSAMINE, 53609-64-6, Dose [Inhibitor]: 0, 0.8% IN DIET FOR 30 WK BEGINNING POST CARCINOGEN TREATMENT (STUDY DURATION: 32 WK), Route [Inhibitor]: ORAL, Species: RAT, Strain/Sex: F344/MALE, Target Tissue: Type of Lesion: BLADDER: ADENOMA, Dose [Carcinogen]: 0.1% IN DRINKING WATER FOR 2 WK, Promoter: NONE USED) 5%, 10%, -100%, not calculated; (Carcinogen: N-BIS(2-HYDROXYPROPYL)NITROSAMINE, 53609-64-6, Dose [Inhibitor]: 0, 0.8% IN DIET FOR 30 WK BEGINNING POST CARCINOGEN TREATMENT (STUDY DURATION: 32 WK), Route [Inhibitor]: ORAL, Species: RAT, Strain/Sex: F344/MALE, Target Tissue: Type of Lesion: KIDNEY: TUMOR, Dose [Carcinogen]: 0.1% IN DRINKING WATER FOR 2 WK, Promoter: NONE USED) 10%, 35%, -250%, not calculated.
